The results in this text go back to EP4722219A1 (Gan & Lee Pharmaceuticals Co., Ltd., priority 2023, dated 2024).

A value given as a limit tells only on which side of the number the result lay.

Holding throughout (format): cell-based
Experiment [1] concerns LNCaP cells. Put plainly: Inhibition of LNCaP cell proliferation (WST-8). Particulars: Homo sapiens, LNCaP FGC cells, 96 hours. In outline: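 Cells were seeded and cultured overnight at 37 °C, 5% CO2, then exposed for 96 h to compound at 9 concentrations, 5-fold serial dilution from 10 µM final. Viability was read by WST-8 absorbance at 450 nm.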
On the technique in general: Tetrazolium dyes change colour on reduction, which living cells bring about.

The test system of experiment [2] is VCaP cells. Put plainly: Inhibition of VCaP cell proliferation (WST-8). The conditions noted are these: Homo sapiens, 168 hours. The method in brief:
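VCaP cells seeded at 15,000/well in DMEM + 10% FBS, treated next day with nine 5-fold dilutions from 10 µM (final) at 37°C, 5% CO2. Viability read by WST-8 absorbance at 450 nm on day 9.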

Experiment [3] has as its target T1, AR protein (Homo sapiens, UniProt P10275).
T1 construct: host or cells: VCaP
T1 sequence (P10275 1-920): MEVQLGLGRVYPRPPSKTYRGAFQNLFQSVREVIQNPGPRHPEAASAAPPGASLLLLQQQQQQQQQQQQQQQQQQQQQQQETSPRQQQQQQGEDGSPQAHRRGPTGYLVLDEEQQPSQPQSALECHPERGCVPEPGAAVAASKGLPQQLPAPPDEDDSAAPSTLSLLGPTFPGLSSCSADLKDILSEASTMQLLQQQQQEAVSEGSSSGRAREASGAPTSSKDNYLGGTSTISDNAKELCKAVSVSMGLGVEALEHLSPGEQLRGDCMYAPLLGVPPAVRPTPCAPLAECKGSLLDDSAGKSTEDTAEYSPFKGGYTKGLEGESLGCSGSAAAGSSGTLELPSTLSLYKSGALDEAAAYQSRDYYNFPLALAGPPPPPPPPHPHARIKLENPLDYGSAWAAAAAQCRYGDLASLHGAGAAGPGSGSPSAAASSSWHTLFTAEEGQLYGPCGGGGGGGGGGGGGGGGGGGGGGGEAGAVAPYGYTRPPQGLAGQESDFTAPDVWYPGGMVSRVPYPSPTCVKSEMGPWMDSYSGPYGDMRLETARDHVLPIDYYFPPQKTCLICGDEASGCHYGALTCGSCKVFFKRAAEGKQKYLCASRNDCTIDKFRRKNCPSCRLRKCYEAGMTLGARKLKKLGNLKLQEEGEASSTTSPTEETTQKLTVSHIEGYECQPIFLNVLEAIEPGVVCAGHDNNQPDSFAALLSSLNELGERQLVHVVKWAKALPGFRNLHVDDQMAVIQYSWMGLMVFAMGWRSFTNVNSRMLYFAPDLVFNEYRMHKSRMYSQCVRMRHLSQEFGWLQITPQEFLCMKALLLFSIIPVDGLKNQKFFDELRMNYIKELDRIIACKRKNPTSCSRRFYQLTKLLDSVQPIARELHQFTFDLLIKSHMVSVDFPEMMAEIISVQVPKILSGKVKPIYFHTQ
Put plainly: AR protein degradation in VCaP cells (Western blot). The conditions noted are these: 8h. In outline:
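AR-positive VCaP human prostate cancer cells grown in DMEM with 10% FBS were plated in six-well plates at 3×10^5 cells/well and incubated overnight. Compounds were then added at 1 µL/well alongside a solvent control and incubated for 8h. Lysates in RIPA buffer with protease inhibitor were quantified by BCA and run by SDS-PAGE. AR was detected by Western blot, and degradation was calculated from band grayscale normalized to GAPDH.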
A general note: A western blot detects proteins with antibodies after separation by electrophoresis.

On to `N#Cc1ccc(O[C@H]2CC[C@H](NC(=O)c3ccc(N4CCC(N5CC6(CCC7(CC6)COc6c7ccc7c6CN(C6CCC(=O)NC6=O)C7=O)C5)CC4)nn3)CC2)cc1Cl` (relative stereo) [A-P-1, N-((1r,4r)-4-(3-chloro-4-cyanophenoxy)cyclohexyl)-6-(4-(7'-(2,6-dioxopiperidin-3-yl)-6'-oxo-7',8'-dihydro-2'-H,6'-H-dihydro[azetidine-3,1'-cyclohexane-4',3"-furo[2,3-e]isoindol]-1-yl)piperidin-1-yl)pyridazine-3-carboxamide], for which the IC50 in experiment [1] was over 10 µM; in experiment [2] it was 0.026 nM. The results for the “Degradation rate of AR protein in VCaP cells” value (“Degradation rate of AR protein” below) in experiment [3] (0.5 nM) and in experiment [3] (5 nM) were 69% and 82%, respectively.

Turning to `COc1cc(O[C@H]2C(C)(C)[C@H](NC(=O)c3ccc(N4CCC(CN5CC6(CCC7(CC6)COc6c7ccc7c6CN(C6CCC(=O)NC6=O)C7=O)C5)CC4)cc3)C2(C)C)ccc1C#N` (relative stereo) [A-P-3], the IC50 turned out to be 3.43 µM in experiment [1] and 0.017 nM in experiment [2]. Also, the “Degradation rate of AR protein” value in experiment [3] (0.5 nM) was 53%; in experiment [3] (5 nM), 87%.

Consider `COc1cc(O[C@H]2C(C)(C)[C@H](NC(=O)c3ccc(N4CCC(C)(CN5CC6(CCC7(CC6)COc6c7ccc7c6CN(C6CCC(=O)NC6=O)C7=O)C5)CC4)cc3)C2(C)C)ccc1C#N` (relative stereo) [A-P-4], for which the IC50 in experiment [1] is 3.52 µM; in experiment [2], 0.19 nM. Besides, the “Degradation rate of AR protein” value in experiment [3] (0.5 nM) is 50%; in experiment [3] (5 nM), 78%.

With `COc1cc(O[C@H]2C(C)(C)[C@H](NC(=O)c3ccc(N4CCC(F)(CN5CC6(CCC7(CC6)COc6c7ccc7c6CN(C6CCC(=O)NC6=O)C7=O)C5)CC4)cc3)C2(C)C)ccc1C#N` (relative stereo) [A-P-5], the IC50 in experiment [1] turned out to be 1 µM; in experiment [2], 1.7 nM. Moreover, the “Degradation rate of AR protein” value was found to be 38% in experiment [3] (0.5 nM) and 73% in experiment [3] (5 nM).

Regarding `N#Cc1ccc(O[C@H]2CC[C@H](NC(=O)c3ccc(N4CCC(N5CCC6(CC5)CCC5(CC6)COc6c5ccc5c6CN(C6CCC(=O)NC6=O)C5=O)CC4)nn3)CC2)cc1Cl` (relative stereo) [A-P-7, N-((1r,4r)-4-(3-chloro-4-cyanophenoxy)cyclohexy 1)-6-(4-(7-(2,6-dioxopiperidin-3-yl)-6-oxo-7,8-dihydro-2H,6H-dipyridyl[2,3-e]isoindole-3,1'-cyclohexane-4',4'"-piperidin]-1"-yl)pyridazine-3-carboxamide], the IC50 in experiment [1] came out at 1.88 µM; in experiment [2], 6 nM. Also, the “Degradation rate of AR protein” value in experiment [3] (0.5 nM) was found to be 79%; in experiment [3] (5 nM) it was 89%.

For the compound `Cn1c(=O)n(C2CCC(=O)NC2=O)c2cc3c(cc21)C1(CCN(C2CC4(CCN(c5ccc(C(=O)N[C@H]6CC[C@H](Oc7ccc(C#N)c(Cl)c7)CC6)nn5)CC4)C2)CC1)CO3` (relative stereo) [A-P-12, N-((1r,4r)-4-(3-chloro-4-cyanophenoxy)cyclohexy 1)-6-(2-(3-(2,6-dioxopiperidin-3-yl)-1-methyl-2-oxo-2,3-dihydro-1H,6H-spiro[benzofuro[5,6-d]imidazole-7,4'-piperidin]-1'-yl)-7-azaspiro[3.5]nonan-7-yl)pyridazine-3-carboxamide], the figures for the half-inhibitory concentration (IC50) in experiment [1] and in experiment [2] were 8.11 µM and 0.023 nM, respectively. The “Degradation rate of AR protein” value in experiment [3] (0.5 nM) and in experiment [3] (5 nM) was 88% throughout.

The IC50 is the concentration at which inhibition is half-maximal. High values mean weaker potency, low ones greater potency.
